# Source: ChEMBL document CHEMBL4196007, “Design, synthesis and biological evaluation of novel 4-aminoquinazolines as dual target inhibitors of EGFR-PI3Kα” (Eur J Med Chem, 2018)
# Assays:
# SNU-638 = experiment: Cytotoxicity against human SNU638 cells after 72 hrs by SRB assay; type: functional, cell-based; conditions: SNU-638, 72 h
# BT-549 = experiment: Cytotoxicity against human BT549 cells after 72 hrs by SRB assay; type: functional, cell-based; conditions: BT-549, 72 h
# SK-HEP1 = experiment: Cytotoxicity against human SKHEP1 cells after 72 hrs by SRB assay; type: functional, cell-based; conditions: SK-HEP1, 72 h
# MCF7 = experiment: Cytotoxicity against human MCF7 cells after 72 hrs by SRB assay; type: functional, cell-based; conditions: MCF7, 72 h
# HCT-116 = experiment: Cytotoxicity against human HCT116 cells after 72 hrs by SRB assay; type: functional, cell-based; conditions: HCT-116, 72 h
# A549 = experiment: Cytotoxicity against human A549 cells after 72 hrs by SRB assay; type: functional, cell-based; conditions: A549, 72 h
# [1] = target: Phosphatidylinositol 4,5-bisphosphate 3-kinase catalytic subunit gamma isoform (Homo sapiens, UniProt P48736); experiment: Inhibition of PI3K p110gamma (unknown origin) using PIP2 as substrate by ELISA
# [2] = target: Phosphatidylinositol 4,5-bisphosphate 3-kinase catalytic subunit alpha isoform (Homo sapiens, UniProt P42336); experiment: Inhibition of PI3K p110alpha (unknown origin) using PIP2 as substrate by ELISA
# [3] = target: Phosphatidylinositol 4,5-bisphosphate 3-kinase catalytic subunit beta isoform (Homo sapiens, UniProt P42338); experiment: Inhibition of PI3K p110beta (unknown origin) using PIP2 as substrate by ELISA
# [4] = target: T1, Phosphatidylinositol 4,5-bisphosphate 3-kinase catalytic subunit delta isoform (Homo sapiens, UniProt O00329); experiment: Inhibition of PI3K p110delta (unknown origin) using PIP2 as substrate by ELISA
# T1 sequence (O00329 whole entry): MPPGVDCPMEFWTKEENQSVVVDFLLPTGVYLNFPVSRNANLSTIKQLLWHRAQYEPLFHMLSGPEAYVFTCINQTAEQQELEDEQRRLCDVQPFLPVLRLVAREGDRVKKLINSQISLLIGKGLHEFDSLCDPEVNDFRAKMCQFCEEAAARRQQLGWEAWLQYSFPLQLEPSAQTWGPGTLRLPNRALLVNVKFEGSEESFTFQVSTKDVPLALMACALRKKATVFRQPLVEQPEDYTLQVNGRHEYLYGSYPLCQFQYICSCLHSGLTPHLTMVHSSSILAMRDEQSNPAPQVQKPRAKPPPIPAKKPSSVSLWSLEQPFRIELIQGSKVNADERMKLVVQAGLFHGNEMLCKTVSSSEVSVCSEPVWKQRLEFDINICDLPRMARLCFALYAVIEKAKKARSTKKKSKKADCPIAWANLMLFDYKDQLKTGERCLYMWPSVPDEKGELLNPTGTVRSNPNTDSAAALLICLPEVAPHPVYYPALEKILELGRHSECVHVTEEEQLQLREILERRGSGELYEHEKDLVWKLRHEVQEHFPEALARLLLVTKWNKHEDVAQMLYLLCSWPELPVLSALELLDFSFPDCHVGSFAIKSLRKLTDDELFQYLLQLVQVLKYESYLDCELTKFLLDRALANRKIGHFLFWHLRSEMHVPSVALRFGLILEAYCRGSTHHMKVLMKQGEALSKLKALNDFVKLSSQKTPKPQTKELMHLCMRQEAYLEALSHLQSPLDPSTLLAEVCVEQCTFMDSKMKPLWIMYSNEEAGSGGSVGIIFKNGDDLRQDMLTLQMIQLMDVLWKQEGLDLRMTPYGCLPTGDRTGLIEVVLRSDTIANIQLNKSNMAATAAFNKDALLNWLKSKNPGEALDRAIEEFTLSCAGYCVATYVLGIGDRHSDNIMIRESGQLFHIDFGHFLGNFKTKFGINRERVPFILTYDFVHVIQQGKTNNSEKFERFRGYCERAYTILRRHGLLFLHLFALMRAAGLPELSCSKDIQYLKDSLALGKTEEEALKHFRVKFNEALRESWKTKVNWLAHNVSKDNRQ
# [5] = target: Epidermal growth factor receptor (Homo sapiens, UniProt P00533); experiment: Inhibition of EGFR (unknown origin) using FAM-labeled peptide as substrate preincubated for 10 mins followed by substrate addition and measured after 1 hr by mobility shift assay
# Chain of Epidermal growth factor receptor (P00533 whole entry): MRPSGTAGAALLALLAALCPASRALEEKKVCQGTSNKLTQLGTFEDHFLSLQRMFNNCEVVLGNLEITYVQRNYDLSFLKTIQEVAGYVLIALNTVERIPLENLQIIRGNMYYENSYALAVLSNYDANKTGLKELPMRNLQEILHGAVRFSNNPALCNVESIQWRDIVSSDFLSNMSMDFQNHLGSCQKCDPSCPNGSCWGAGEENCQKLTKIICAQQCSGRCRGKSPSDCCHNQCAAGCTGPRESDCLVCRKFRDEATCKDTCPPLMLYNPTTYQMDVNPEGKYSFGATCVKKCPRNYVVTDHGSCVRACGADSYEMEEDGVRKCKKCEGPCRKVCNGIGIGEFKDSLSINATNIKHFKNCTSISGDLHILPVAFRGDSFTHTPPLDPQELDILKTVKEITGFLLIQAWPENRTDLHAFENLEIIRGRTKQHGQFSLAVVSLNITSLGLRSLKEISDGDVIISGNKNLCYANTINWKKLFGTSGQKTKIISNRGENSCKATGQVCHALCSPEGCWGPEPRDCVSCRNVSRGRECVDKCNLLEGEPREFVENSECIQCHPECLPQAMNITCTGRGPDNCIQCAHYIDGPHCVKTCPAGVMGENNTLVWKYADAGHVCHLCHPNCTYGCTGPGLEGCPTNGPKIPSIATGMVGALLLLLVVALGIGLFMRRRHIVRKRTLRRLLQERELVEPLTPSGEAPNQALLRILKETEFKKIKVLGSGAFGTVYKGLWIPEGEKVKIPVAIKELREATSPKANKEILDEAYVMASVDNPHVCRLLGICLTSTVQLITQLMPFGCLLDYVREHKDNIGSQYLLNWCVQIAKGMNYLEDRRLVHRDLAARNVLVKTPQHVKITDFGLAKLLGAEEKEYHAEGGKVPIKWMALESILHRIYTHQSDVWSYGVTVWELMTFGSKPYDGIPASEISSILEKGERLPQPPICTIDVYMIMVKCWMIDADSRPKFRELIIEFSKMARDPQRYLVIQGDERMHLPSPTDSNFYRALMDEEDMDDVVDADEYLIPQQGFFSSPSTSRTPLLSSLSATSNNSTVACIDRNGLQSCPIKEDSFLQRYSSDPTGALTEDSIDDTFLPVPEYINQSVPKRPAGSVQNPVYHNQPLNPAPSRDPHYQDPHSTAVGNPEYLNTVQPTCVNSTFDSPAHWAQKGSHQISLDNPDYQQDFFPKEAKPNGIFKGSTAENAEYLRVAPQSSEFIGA
# Chain of Phosphatidylinositol 4,5-bisphosphate 3-kinase catalytic subunit gamma isoform (P48736 whole entry, canonical isoform): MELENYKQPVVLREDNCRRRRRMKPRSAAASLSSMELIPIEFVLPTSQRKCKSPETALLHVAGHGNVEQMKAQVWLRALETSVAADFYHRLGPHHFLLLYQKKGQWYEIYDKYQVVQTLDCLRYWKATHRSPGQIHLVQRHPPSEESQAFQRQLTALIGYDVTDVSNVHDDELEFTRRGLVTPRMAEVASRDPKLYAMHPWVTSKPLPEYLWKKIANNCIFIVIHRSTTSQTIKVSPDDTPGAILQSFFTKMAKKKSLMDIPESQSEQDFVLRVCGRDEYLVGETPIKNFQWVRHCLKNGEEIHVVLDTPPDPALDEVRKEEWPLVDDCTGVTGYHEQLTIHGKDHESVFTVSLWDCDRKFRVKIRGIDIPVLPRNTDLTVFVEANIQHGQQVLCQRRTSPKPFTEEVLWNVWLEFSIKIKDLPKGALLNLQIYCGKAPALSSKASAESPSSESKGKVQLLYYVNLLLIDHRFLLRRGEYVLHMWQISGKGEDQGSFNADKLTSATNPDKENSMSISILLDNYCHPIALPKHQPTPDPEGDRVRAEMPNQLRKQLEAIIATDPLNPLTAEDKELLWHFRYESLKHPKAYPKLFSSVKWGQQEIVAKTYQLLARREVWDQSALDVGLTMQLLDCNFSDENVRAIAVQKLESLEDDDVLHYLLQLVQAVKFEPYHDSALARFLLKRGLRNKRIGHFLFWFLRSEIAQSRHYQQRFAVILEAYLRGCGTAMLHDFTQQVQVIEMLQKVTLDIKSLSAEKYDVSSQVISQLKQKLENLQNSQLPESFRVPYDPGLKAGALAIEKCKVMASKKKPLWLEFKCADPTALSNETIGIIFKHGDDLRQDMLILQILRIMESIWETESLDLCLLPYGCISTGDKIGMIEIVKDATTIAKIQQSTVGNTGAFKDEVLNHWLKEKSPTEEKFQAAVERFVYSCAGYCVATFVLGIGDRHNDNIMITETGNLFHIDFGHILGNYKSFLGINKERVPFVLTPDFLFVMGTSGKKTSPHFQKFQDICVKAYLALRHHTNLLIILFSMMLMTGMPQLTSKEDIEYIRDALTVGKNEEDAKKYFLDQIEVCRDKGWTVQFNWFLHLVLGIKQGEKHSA
# Chain of Phosphatidylinositol 4,5-bisphosphate 3-kinase catalytic subunit beta isoform (P42338 whole entry, canonical isoform): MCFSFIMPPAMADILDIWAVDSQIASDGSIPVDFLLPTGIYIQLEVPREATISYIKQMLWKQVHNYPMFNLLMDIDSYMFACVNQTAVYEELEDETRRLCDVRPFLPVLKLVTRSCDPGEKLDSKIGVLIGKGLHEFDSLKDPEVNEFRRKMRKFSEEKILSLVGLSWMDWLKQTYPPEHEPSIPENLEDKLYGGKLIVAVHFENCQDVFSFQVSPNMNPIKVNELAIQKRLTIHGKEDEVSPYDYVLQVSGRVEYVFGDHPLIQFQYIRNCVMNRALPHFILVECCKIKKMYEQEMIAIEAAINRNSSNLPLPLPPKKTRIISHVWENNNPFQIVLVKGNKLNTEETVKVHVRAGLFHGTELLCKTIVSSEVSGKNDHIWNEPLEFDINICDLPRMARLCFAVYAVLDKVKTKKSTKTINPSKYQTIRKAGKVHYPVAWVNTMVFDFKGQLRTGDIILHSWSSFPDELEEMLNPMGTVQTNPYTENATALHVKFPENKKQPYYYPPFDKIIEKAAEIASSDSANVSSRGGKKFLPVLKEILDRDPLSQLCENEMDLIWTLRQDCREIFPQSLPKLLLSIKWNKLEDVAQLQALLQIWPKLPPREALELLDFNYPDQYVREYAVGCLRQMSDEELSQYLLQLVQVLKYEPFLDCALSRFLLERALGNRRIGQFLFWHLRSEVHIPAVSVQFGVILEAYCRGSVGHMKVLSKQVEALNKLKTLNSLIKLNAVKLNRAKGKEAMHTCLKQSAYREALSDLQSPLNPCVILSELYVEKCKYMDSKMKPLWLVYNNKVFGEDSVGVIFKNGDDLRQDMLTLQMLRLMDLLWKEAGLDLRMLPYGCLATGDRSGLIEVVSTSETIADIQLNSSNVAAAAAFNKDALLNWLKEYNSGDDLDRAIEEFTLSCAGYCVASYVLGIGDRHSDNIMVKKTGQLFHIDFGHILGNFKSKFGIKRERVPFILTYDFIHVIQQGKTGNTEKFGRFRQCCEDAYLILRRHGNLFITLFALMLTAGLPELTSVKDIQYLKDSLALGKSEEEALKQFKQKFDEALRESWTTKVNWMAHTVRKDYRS
# Chain of Phosphatidylinositol 4,5-bisphosphate 3-kinase catalytic subunit alpha isoform (P42336 whole entry, canonical isoform): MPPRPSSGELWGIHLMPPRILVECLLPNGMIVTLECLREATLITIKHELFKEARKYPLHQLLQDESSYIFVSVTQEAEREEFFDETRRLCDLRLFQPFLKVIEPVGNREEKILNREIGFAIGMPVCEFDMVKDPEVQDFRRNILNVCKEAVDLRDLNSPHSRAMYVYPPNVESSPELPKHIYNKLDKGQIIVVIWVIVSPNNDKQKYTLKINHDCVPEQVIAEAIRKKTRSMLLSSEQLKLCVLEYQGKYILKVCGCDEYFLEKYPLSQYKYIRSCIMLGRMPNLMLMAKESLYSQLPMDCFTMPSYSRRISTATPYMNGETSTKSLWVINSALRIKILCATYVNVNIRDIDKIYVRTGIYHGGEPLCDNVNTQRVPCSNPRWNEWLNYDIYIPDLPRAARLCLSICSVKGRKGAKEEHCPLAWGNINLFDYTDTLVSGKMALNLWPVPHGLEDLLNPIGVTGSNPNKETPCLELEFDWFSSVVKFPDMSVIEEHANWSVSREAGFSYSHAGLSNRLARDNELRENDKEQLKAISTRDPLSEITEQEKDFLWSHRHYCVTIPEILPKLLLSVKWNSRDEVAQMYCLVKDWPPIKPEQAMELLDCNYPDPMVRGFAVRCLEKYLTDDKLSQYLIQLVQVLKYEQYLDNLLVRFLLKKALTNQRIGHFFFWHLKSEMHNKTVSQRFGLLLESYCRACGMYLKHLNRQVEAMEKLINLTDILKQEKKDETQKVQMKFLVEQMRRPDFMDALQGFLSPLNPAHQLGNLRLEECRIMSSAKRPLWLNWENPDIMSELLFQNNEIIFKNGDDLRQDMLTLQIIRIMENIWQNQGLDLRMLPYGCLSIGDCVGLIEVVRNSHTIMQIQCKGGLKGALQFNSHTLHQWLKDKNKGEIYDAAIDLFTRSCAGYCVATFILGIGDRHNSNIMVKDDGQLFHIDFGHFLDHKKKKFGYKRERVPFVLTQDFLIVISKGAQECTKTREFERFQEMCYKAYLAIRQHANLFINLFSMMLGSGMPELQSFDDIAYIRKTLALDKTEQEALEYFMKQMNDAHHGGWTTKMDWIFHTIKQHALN
IC50 [1] [µM],IC50 [2] [µM],IC50 [3] [µM],IC50 [4] [µM],IC50 [5] [µM],SMILES,IC50 (SNU-638) [µM],IC50 (BT-549) [µM],IC50 (SK-HEP1) [µM],IC50 (MCF7) [µM],IC50 (HCT-116) [µM],IC50 (A549) [µM]
–,–,–,–,–,CCS(=O)(=O)Nc1cc(-c2ccc3ncnc(Nc4ccc(F)cc4)c3c2)cnc1OC,2.4,3.12,1.47,6.51,3.16,7.62
–,–,–,–,–,CCCCS(=O)(=O)Nc1cc(-c2ccc3ncnc(Nc4cccc(C(=O)OCC)c4)c3c2)cnc1OC,25.2,37.2,21.6,36.4,26.7,42.3
1.78,0.165,4.94,4.36,0.409,CCS(=O)(=O)Nc1cc(-c2ccc3ncnc(Nc4cccc(C(=O)OC)c4)c3c2)cnc1OC,1.12,1.08,2.4,10.1,0.4,1.1
–,–,–,–,–,CCS(=O)(=O)Nc1cc(-c2ccc3ncnc(Nc4ccc(OC)nc4)c3c2)cnc1OC,4.28,3.49,3.44,3.77,6.91,5.56
–,–,–,–,–,CCS(=O)(=O)Nc1cc(-c2ccc3ncnc(Nc4ccc(Cl)c(C(=O)OC)c4)c3c2)cnc1OC,2.2,2.36,7.06,1.43,3.13,2.13
–,–,–,–,–,CCS(=O)(=O)Nc1cc(-c2ccc3ncnc(Nc4ccc(C(=O)OC)c(OC)c4)c3c2)cnc1OC,3.44,3.76,0.83,10.9,1.69,3.35
–,–,–,–,–,CCS(=O)(=O)Nc1cc(-c2ccc3ncnc(Nc4ccc(F)nc4)c3c2)cnc1OC,6.52,4.78,5.24,5.39,7.62,6.72
–,–,–,–,–,CCS(=O)(=O)Nc1cc(-c2ccc3ncnc(Nc4ccc(F)c(C(=O)OC)c4)c3c2)cnc1OC,2.54,2.74,5.18,1.15,2.36,3.42
–,–,–,–,–,CCS(=O)(=O)Nc1cc(-c2ccc3ncnc(Nc4ccc(OC)c(Cl)c4)c3c2)cnc1OC,3.62,2.47,2.81,3.32,5.62,5.24
–,–,–,–,–,CCS(=O)(=O)Nc1cc(-c2ccc3ncnc(Nc4ccc(OCc5ccc(F)cc5)c(Cl)c4)c3c2)cnc1OC,2.36,14.6,1.95,28.4,5.41,31.3
–,–,–,–,–,COC(=O)c1cccc(Nc2ncnc3ccc(-c4cnc(OC)c(NS(=O)(=O)c5ccc(F)cc5F)c4)cc23)c1,0.4,12.7,2.8,22.4,1.5,10.5
–,–,–,–,–,CCS(=O)(=O)Nc1cc(-c2ccc3ncnc(Nc4ccc(OC)cc4)c3c2)cnc1OC,3.97,1.88,1.61,1.79,3.49,3.58
–,–,–,–,–,Cn1c(=O)n(-c2ccc(C(C)(C)C#N)cc2)c2c3cc(-c4cnc5ccccc5c4)ccc3ncc21 [DACTOLISIB],1.24,0.74,1.82,1.33,0.84,0.62
–,–,–,–,–,CCS(=O)(=O)Nc1cc(-c2ccc3ncnc(Nc4ccc(F)cc4F)c3c2)cnc1OC,2.05,2.48,2.49,1.61,4.01,4.71
–,–,–,–,–,CCCCS(=O)(=O)Nc1cc(-c2ccc3ncnc(Nc4ccc(F)c(Cl)c4)c3c2)cnc1OC,5.35,56.8,53.8,65.8,9.99,77.1
–,–,–,–,–,CCS(=O)(=O)Nc1cc(-c2ccc3ncnc(Nc4cccc(F)c4)c3c2)cnc1OC,2.76,2.76,1.85,8.02,3.94,9.94
–,–,–,–,–,CCS(=O)(=O)Nc1cc(-c2ccc3ncnc(Nc4ccc(OC)c(OC)c4)c3c2)cnc1OC,1.68,2.59,2.84,2.43,4.36,5.82
–,–,–,–,–,CCS(=O)(=O)Nc1cc(-c2ccc3ncnc(Nc4ccc(OC(F)(F)F)cc4)c3c2)cnc1OC,22.4,8.24,6.14,23.7,16.6,25.4
